Like-named read-outs stand apart in the source and are kept apart here.
What was measured:
[1] = test system: VEGF; test: VEGF production promoting action in human hair follicle dermal papilla cells (ELISA of culture supernatant); assay type: cell-based
Experimental: An amount of VEGF in a culture supernatant treated with isosaponarin for three days on human hair follicle dermal papilla cells was measured using ELISA kit for (product name: Human VEGF Quantikine ELISA, Cat. No. DVE00, distributed by R&D Systems, Inc.) The supernatant at the time of three-day culturing in the above section (1-3) was used as the culture supernatant treated with isosaponarin for three days. Specifically, in the above section (1-3), in order to measure absorbance, the culture supernatant was removed three days after addition of isosaponarin. In an evaluation test of VEGF production promoting action, the culture supernatant was collected three days after the addition of isosaponarin, and the supernatant was used as a sample. The experiment was carried out five times.
Hereinafter, a method of measuring VEGF will be described in detail. For the measurement of VEGF, the stock solution was used without diluting the supernatant.
Procedure 1-1. On the basis of a VEGF standard stock solution (2000 pg/mL), VEGF standard solutions of 1000, 500, 250, 125, 62.5, 31.2, and 15.6 pg/mL were prepared using a reaction buffer.
Procedure 1-2. Each of the VEGF standard solutions and 200 μL of sample (culture supernatant) were added to a VEGF immobilized microplate in which 50 μL of dilution was added to each well, and allowed to react at room temperature for 2 hours (primary reaction).
Procedure 1-3. The solutions in the wells were removed and the wells were washed 3 times with washing solution.
Procedure 1-4. 200 μL of horseradish peroxidase-conjugated VEGF antibody solution was added to each well and allowed to react for 2 hours at room temperature (secondary reaction).
Procedure 1-5. The solutions in the wells were removed and the wells were washed 3 times with the washing solution.
Procedure 1-6. 200 μL of substrate solution was added to each well and allowed to react for 20 minutes at room temperature.
Procedure 1-7. 50 μL of reaction stop solution was added to each well. After one minute mixing in a plate mixer, absorbance of each well was measured with a plate reader (measuring wavelength 450 nm).
Procedure 1-8. From a standard curve, VEGF concentration in the sample was calculated.
A non-addition control section was used as a comparison control section of isosaponarin.
As a positive control, the same experiment was performed to the case of adding minoxidil having final concentration of 30 μmol/L as well. A non-addition control section was used as a comparison control section of minoxidil.
(§1) Thereafter, the cells were cultured for three days, and proliferation of each cell is compared using Living Cell Count Reagent SF. The experiment was carried out five times. After three-days culturing was completed, supernatant liquid of the culture was collected and a VEGF production amount of the supernatant was measured by ELISA kit as in Example 2.

[2] = test system: human hair follicle dermal papilla cells; test: Evaluation of human hair follicle dermal papilla cell-activating action (Living Cell Count Reagent SF, ABS/hr); assay type: cell-based; conditions: Example 7, three days
[3] = test system: human hair follicle dermal papilla cells; test: Cytotoxicity test using human hair follicle dermal papilla cells; conditions: three-day culture; for concentration showing toxicity to human hair follicle dermal papilla cells: FIGS. 5-7
Experimental: Human hair follicle dermal papilla cells (Cat. No. CA60205a, Lot No. 2548, derived from person, distributed by Toyobo Co., Ltd.), which are widely used in efficacy evaluation of a hair restoration agent, were used as test cells. The human hair follicle dermal papilla cells were cultured in a carbon dioxide incubator (5% CO2, 37° C.) using a follicle dermal papilla cell proliferation medium (Cat. No. TMTPGM-250, distributed by Toyobo Co., Ltd.) A flask used for the culture was coated with collagen I before use. For cell passage, cells were separated from the flask using a follicle dermal papilla cell dedicated subculture set (Cat. No. CA090K, distributed by Toyobo Co., Ltd.)
The human hair follicle dermal papilla cells were seeded in a collagen I-coated 96-well plate at 5×10^3 cells/well (0.1 mL/well in this test). After one-day culturing (50% confluent) in the carbon dioxide incubator (5% CO2, 37° C.), the cells were transferred to a test medium containing isosaponarin, and then cultured for three days. Cell proliferation was compared using Living Cell Count Reagent SF (Cat. No. 07553, distributed by Nacalai Tesque, Inc.) In consideration of possible influence on absorbance by precipitates adhering to the cells in absorbance measurement in living cell count, the culture supernatant was removed after the end of the three-day culturing, and the cells were washed with a phosphate-buffered saline (PBS). After washing with PBS, 100pL per well of a medium containing 10% of Living Cell Count Reagent SF was added. Absorbance (measurement wavelength 450 nm, reference wavelength 595 nm) of the culture supernatant was measured 30 minutes and 90 minutes after the addition. An amount of change (ABS/hr) in absorbance ABS per hour was calculated from values at 90 minutes and 30 minutes. The experiment was carried out three times.

[4] = test system: FGF-7 gene; test: FGF-7 gene expression in human hair follicle dermal papilla cells (real-time PCR); assay type: cell-based; conditions: cultured for two hours
Experimental: Then, the cells are cultured for two hours, and total RNA was recovered and reverse transcribed into cDNA. Thereafter, FGF-7 gene expression was measured by real-time PCR. Using GAPDH gene as an internal reference, FGF-7 gene expression was calculated as a relative value of the negative control section. The experiment was carried out three times. Details of each procedure are shown below.
First, collection of total RNA from the cells and cDNA synthesis were carried out according to the steps of FastLane Cell RT-PCR kit.
Step 7-1. 500 μL per well of buffer FCW was added to the cells washed with PBS, and the buffer FCW was immediately removed and aspirated.
Step 7-2. 200 μL per well of the buffer FCP was added. After incubation for 5 minutes at room temperature (25° C.), FastLane lysate was transferred to a 96-well PCR tube. The tube was stored at −80° C. until the next cDNA synthesis.
Step 7-3. Lysate in Step 7-2 was dissolved at room temperature. 2 μL of gDNA Wipeout Buffer, 1μL of FastLane lysate and 11 μL of RNase-free water were added to a new PCR tube, caused to react for 5 minutes at 42° C., and then transferred immediately to ice. (In fact, an appropriate amount of master mix of gDNA Wipeout Buffer and RNase-free water was added to the tube containing lysate.)
Step 7-4. 6 μL of the reverse transcription reaction master mix was added to 14 μL of reaction solution obtained in Step 7-3 and incubated for 30 minutes at 42° C. (1 μL of Quantiscript Reverse Transcriptase, 4 μL of Quantiscript RT Buffer, 1 μL of RT Primer Mix/tube).
Step 7-5. The reaction solution was treated for 3 minutes at 95° C., to inactivate the reverse transcriptase. […]
The relative expression level of each gene was calculated as follows. From an intersection of an amplification curve of each gene and a threshold line of each gene, a Ct value (the number of PCR cycles) was calculated. ΔCt value is obtained by subtracting a Ct value of the internal reference GAPDH gene from a Ct value of the target gene (Ct values (target gene)−Ct (GAPDH2)=ΔCt value). […]

[5] = test system: human hair follicle dermal papilla cells
[6] = test system: human hair follicle dermal papilla cells; test: Evaluation of human hair follicle dermal papilla cell-activating action (Living Cell Count Reagent SF, ABS/hr); assay type: cell-based; conditions: for cell-activating action vs 0.1% DMSO experimental section: 100 μmol/L
Experimental: After one-day culturing in the carbon dioxide incubator, the cells were transferred to a follicle dermal papilla cell proliferation medium in which isosaponarin was dissolved at final concentrations of 0.1 μmol/L, 10 μmol/L, and 1000 μmol/L. Then, the cells were cultured for one day and three days, and proliferation of each cell was compared using Living Cell Count Reagent SF. After the one-day and three-day culturing were completed, the supernatant culture was removed, and the cells were washed with PBS. After washing with PBS, a medium containing 10% Living Cell Count Reagent SF at 300 μL/well was added. The culture supernatant at 100 μL/well was transferred to another 96-well plate 30 and 90 minutes after the addition. Absorbance was measured at a microplate reader (measuring wavelength 450 nm, reference wavelength 595 nm). […] The experiment was carried out five times. A non-addition control section was used as a comparison control section of isosaponarin.
As a positive control, the same test was carried out also for the case of adding adenosine (Cat. No. 016-10493, distributed by Wako Pure Chemical Industries, Ltd.) at final concentration of 100 μmol/L and minoxidil (Cat. No. M4145-25MG, distributed by Sigma-Aldrich Japan Co., Ltd.) at final concentration of 30 μmol/L. Adenosine was dissolved in dimethyl sulfoxide (DMSO) and added to a test medium at final concentration of 0.1% DMSO. As a solvent control, 0.1% DMSO experimental section was provided. Minoxidil was dissolved in ethanol and added to a test medium at final concentration of 0.1% ethanol. […] Thus, a non-addition control section was used for a comparison control section of minoxidil.
Significance test was performed in the comparison experimental section. The test was carried out as Student T-test. It is determined that there is significance when P<0.05 (less than 5% if null hypothesis is true), as described in the figures.
A 100 mmol/L stock solution of adenosine (positive control substance) was prepared using DMSO as a solvent, and added to a test medium at final concentration of 100 μmol/L (0.1% DMSO experimental section was used as a solvent control). A 15 mmol/L stock solution of minoxidil was prepared with 50% ethanol, and added to a test medium at final concentration of 30 μmol/L. Since solvent (ethanol) concentration in this case is 0.2%, 0.2% ethanol experimental section was used as the control section.
Since the concentration of the solvent in the highest concentration of each test substance is 0.1% or less, it is determined that there is no influence of the solvent in the present test, and a non-addition control section was used as a reference in comparison of significant difference. The test was conducted as a Student T-test.
as §1
Further, the supernatant was removed. The cells were washed with PBS, and a medium containing 10% Living Cell Count Reagent SF (300 μL/well) was then added. 100 μL per well of the culture supernatant 30 and 90 minutes after the addition was transferred to another 96-well plate and absorbance was measured with a microplate reader (measuring wavelength 450 nm, reference wavelength 595 nm).

[7] = Example 7, 0.1 μmol/L, three days

O=c1cc(-c2ccc(O)cc2)oc2cc(O)cc(O)c12 [apigenin, 2-(4-hydroxyphenyl)-5-hydroxy-7-hydroxy-4H-1-benzopyran-4-one]
amount of VEGF vs non-addition control section ([1]; Example 7, 0.001 μmol/L to 0.01 μmol/L, three days, FIG. 9): increased more significantly
amount of VEGF vs non-addition control section [1, 7]: no significance
cell-activating action vs non-addition control section ([2]; 0.001 μmol/L to 1 μmol/L, FIG. 8): more significant cell-activating action
cell-activating action vs non-addition control section ([2]; 10 μmol/L): no significance
concentration showing toxicity to human hair follicle dermal papilla cells [3]: ≥ 0.08 mmol/L

coumaric acid
FGF-7 gene expression vs non-addition control section ([4]; 0.001 μmol/L, FIG. 10): more significantly elevated
FGF-7 gene expression vs non-addition control section ([4]; 0.01 μmol/L): did not show any significance
concentration showing toxicity to human hair follicle dermal papilla cells [5]: ≥ 2 mmol/L
cell-activating action vs non-addition control section ([2]; 0.01 μmol/L): did not show significance
cell-activating action vs non-addition control section ([2]; 0.1 μmol/L, FIG. 8): more significant cell-activating action
cell-activating action vs non-addition control section ([2]; 10 μmol/L): did not show significance

COC(=O)/C=C/c1ccc(O)c(O)c1 [caffeic acid methyl ester]
amount of VEGF vs non-addition control section [1, 7]: did not show any significance
amount of VEGF vs non-addition control section ([1]; Example 7, 1 μmol/L, three days, FIG. 9): increased more significantly
amount of VEGF vs non-addition control section ([1]; Example 7, 10 μmol/L, three days): did not show any significance
concentration showing toxicity to human hair follicle dermal papilla cells [3]: ≥ 0.016 mmol/L

Nc1ncnc2c1ncn2[C@@H]1O[C@H](CO)[C@@H](O)[C@H]1O [adenosine, reference compound]
cell-activating action vs 0.1% DMSO experimental section ([6]; Example 1, three-day processing period): more significant cell-activating action
cell-activating action vs 0.1% DMSO experimental section ([6]; Example 7, three days, FIG. 8): more significant cell-activating action
amount of VEGF vs 0.1% DMSO experimental section ([1]; Example 7, 100 μmol/L, three days, FIG. 9): significantly increased the amount of VEGF on human hair follicle dermal papilla cell slightly more
FGF-7 gene expression vs 0.1% DMSO experimental section ([4]; 100 μmol/L, FIG. 10): more significantly elevated FGF-7 gene expression

O=c1cc(-c2ccc(O[C@@H]3O[C@H](CO)[C@@H](O)[C@H](O)[C@H]3O)cc2)oc2cc(O)c([C@@H]3O[C@H](CO)[C@@H](O)[C@H](O)[C@H]3O)c(O)c12 [isosaponarin, 4′-(β-D-glucopyranosyloxy)-5,7-dihydroxy-6-β-D-glucopyranosylflavone]
cell-activating action vs non-addition control section ([6]; Example 1, 0.1 μmol/L to 1000 μmol/L, one-day processing period, FIG. 2): slightly more significant cell-activating action
cell-activating action vs non-addition control section ([6]; Example 1, 0.1 μmol/L to 1000 μmol/L, three-day processing period, FIG. 3): more significant cell-activating action
cell-activating action relative to the action in the case of treating with minoxidil ([6]; Example 1, three-day processing period, minoxidil 30 μmol/L): about three times
amount of VEGF vs non-addition control section ([1]; Example 2, 1000 μmol/L, treated for three days, FIG. 4): significantly increased
concentration showing no toxicity to human hair follicle dermal papilla cells ([3]; FIG. 1): ≤ 1000 µmol/L

Nc1cc(N2CCCCC2)nc(N)[n+]1[O-] [minoxidil, 6-(1-piperidinyl)-2,4-pyrimidinediamine-3-oxide, reference compound]
cell-activating action vs non-addition control section ([6]; Example 1, 30 μmol/L, one-day processing period): slightly more significant cell-activating action
cell-activating action vs non-addition control section ([6]; Example 1, 30 μmol/L, three-day processing period): more significant cell-activating action
amount of VEGF vs non-addition control section ([1]; Example 2, 30 μmol/L, treated for three days, FIG. 4): significantly increased
amount of VEGF vs 0.2% ethanol experimental section ([1]; Example 7, 30 μmol/L, three days, FIG. 9): more significantly increased
cell-activating action vs 0.2% ethanol experimental section ([2]; 30 μmol/L, FIG. 8): more significant cell-activating action
